Earlier results, collected in US20250152537A1, “COMPOSITIONS AND METHODS FOR THE TREATMENT OF HUMAN IMMUNODEFICIENCY VIRUS” (PROTHIONE LLC, priority 2022, published 2025).

Conditions: not told

N[C@@H](CCC(=O)N[C@@H](CS)C(=O)NCC(=O)O)C(=O)O [GSH, glutathione]
membrane permeability: membrane-impermeable
